Assay results as given in patent publication US7139415B2, “Robotic microscopy systems” (The Regents of the University of California, priority 2001, dated 2006).

Legend:
[1] = test system: neurons transfected with GFP; test: Automated imaging of survival of GFP-transfected neurons; assay type: cell-based; settings: kainate added 24 or 76 hours after transfection, compared with untreated sister culture
Protocol: (§1) If the “loss” of GFP corresponded to the death of a neuron, that the loss of GFP positive neurons could be quantified over time as a measure of neuronal survival. To test whether the “loss” of GFP corresponded to the death of a neuron, the loss of GFP in transfected neurons was measured at the same time as the loss of membrane integrity using a membrane impermeant nuclear dye, ethidium homodimer (EtHD). EtHD staining of cell nuclei is taken as a positive sign of death in the widely used “LIVE-DEAD” assay.
Next, expression of the transfection marker GFP was tested for its affect on survival. FIG. 16E is a graph showing the results of a parallel experiment, in which the survival of transfected neurons in two sister cultures was compared. One culture was imaged once at the end of the experiment (hatched bar) and the other was imaged both a day after transfection and at the end of the experiment (solid bars). The two cultures show nearly identical survival. Finally, if this approach is a valid way to measure neuronal survival, it should be able to detect the effects of molecules known to regulate survival. First, the ability to detect the neurotoxicity of kainic acid was tested. […]
FIG. 16C is a graph showing survival of transfected neurons in three sister cultures was monitored and compared. […]

[2] = test system: GFP transfected neurons; assay type: cell-based; settings: in the presence of extracellular EtHD
Protocol: as §1
FIG. 16A is a panel of photographs exemplifying application of an automated imaging system to the study of neuronal survival, and showing that loss of GFP fluorescence correlates with a loss of membrane integrity and nuclear staining with ethidium homodimer. […] Between 60 (not shown) and 75 minutes, GFP fluorescence is abruptly lost from one neuron and its nucleus stains positively for EtHD. Later, the other transfected neuron in the image loses GFP fluorescence and stains positively for EtHD. […] Thus, overall, the GFP fluorescence of particular neurons disappeared eventually but abruptly, and at that same moment, the nuclei of those neurons stained positively with EtHD (FIG. 16A). Thus, the loss of GFP fluorescence correlated well with one widely accepted measure of cell death.

Question: Which results are given for `C=C(C)[C@H]1CN[C@H](C(=O)O)[C@H]1CC(=O)O` [kainic acid]?
Answer: neuronal survival (number of surviving GFP positive neurons) [1]: significant decrease in neuronal survival; morphology of GFP transfected neurons in response to the neurotoxin [2]: cell bodies of GFP transfected neurons rounded and swelled and their neurites began to retract
